Data set [1] is described as follows: Acute dosing study: serum lutein kinetics, pharmacokinetic parameters and bioavailability. In kind it is in vivo, neonatal Sprague-Dawley rats. The following applies: 10 mg/kg body weight of lutein; for Serum lutein concentration: P10 pups. As for the experimental part: To determine the bioavailability of lutein in neonatal Sprague-Dawley rats, an acute dosing study was conducted. The procedure was approved by the Institutional Animal Care and Use Committee of the University of Alabama (Number: 21-08-4864, 23 September 2021). On postnatal day 10 (P10), neonatal rats were randomly selected from litters and received a single dose of either free lutein (i.e., lutein ester dissolved in olive oil) or lutein emulsion, both containing 10 mg/kg body weight of lutein. The dose was administered to the pup’s mouth via a pipette. The concentration of lutein ester in the oil phase was 0.004 g/mL. The lutein dosage was selected based on our pilot study and previous studies. It is higher than the dosage used in human newborns but is considered acceptable and safe to be used in pharmacokinetic studies in rodent models. At 0.5 h, 1 h, 2 h, 4 h, 6 h, 12 h, and 24 h after dosing, pups (n = 3/time point/group) were euthanized, and blood, liver, spleen, brain, and eye were collected. Serum was obtained by centrifuging blood samples and tissues were stored at −80 °C until time of analysis. A group of rat pups (n = 3) not receiving treatments were used to measure the baseline lutein concentrations. Throughout the study, maternal rats consumed a purified diet with no lutein (D19120501, Research Diets Inc, New Brunswick, NJ, USA) (Table 1).
Serum and tissue lutein concentration was determined using an ultra-performance liquid chromatography (UPLC) system (Waters, Milford, MA, USA) equipped with a photo-diode array detector (PDA)/MS/MS, according to our well-established methods with slight modification. As for the serum, 100 μL of the sample was incubated with 2 mL of 100% ethanol at room temperature for an hour for lipid extraction. For the tissues, ~0.1 g of the sample was weighed, homogenized, and incubated with 2 mL of 100% ethanol at room temperature for an hour. An amount of 1 mL of 5% (w/v) potassium hydroxide was added to the sample and incubated in a water bath at 60 °C for 45 min for saponification. Upon saponification, samples were allowed to cool for about 15 min, and then an addition of 4 mL of hexane containing 0.1% butylated hydroxytoluene (w/v) and 2 mL of deionized water was added. The mixture was vortexed for 20 s and centrifuged at 1600 rpm at 25 °C for 15 min. The upper layer was collected following centrifugation and dried under nitrogen at 37 °C. The dried sample was then rinsed twice with hexane, dried, and reconstituted with 100 µL of acetonitrile-methanol. The reconstituted sample was centrifuged for 2 min to remove any possible precipitation. For UPLC analysis, 10 µL of the sample was injected into the Waters Acquity UPLC HSS T3 column. Solvent A was acetonitrile: methanol (50:50, v/v), and solvent B was 100% isopropanol. The mobile phase was made up of solvent A and solvent B in a volume ratio of 95:5 (v/v). The flow rate was set as 0.5 mL/min, and the column temperature was maintained at 35 °C. The detection wavelength was set at 446 nm. Retinyl acetate (Sigma-Aldrich, St. Louis, MO, USA) was used as the internal standard.
Bioavailability is defined as the rate and range of the active compound to the systemic circulation through a single oral administration. It can be evaluated by pharmacokinetic parameters derived from the compound kinetic curve (serum concentration vs. time). In the acute dosing study, pharmacokinetic parameters, including maximum lutein concentration (Cmax), time to reach Cmax (Tmax), and area under the time-concentration curve (AUC0–24) were determined. Cmax and Tmax were read directly from the serum lutein kinetic curve. The area under the time-concentration curve (AUC0–24) was calculated by trapezoid rule with linear interpolation using GraphPad Prism 8.0 (San Diego, CA, USA). […]

The conditions of data set [2]: encapsulation technique Polymer, Mice, cited from earlier work.

This is an account of results in paper PMC10857328, “Utilization of Biopolymer-Based Lutein Emulsion as an Effective Delivery System to Improve Lutein Bioavailability in Neonatal Rats” (Nutrients, 2024).

Like-named read-outs stand apart in the source and are kept apart here.

Lutein ester [Free Lutein]: the figures for the Serum lutein concentration in data set [1] (0.5 h after single oral dose), in data set [1] (6 h after single oral dose) and in data set [1] (24 h after single oral dose) were 0.00 ± 0.00 nmol/L, 132.91 ± 64.96 nmol/L and 43.16 ± 8.53 nmol/L, respectively. For the same substance, the “Tmax, time to reach Cmax (serum)” value in data set [1] (single oral dose) worked out at 4 h. Further, the Cmax in data set [1] (single oral dose, read-out: Cmax, maximum serum lutein concentration) amounted to 145 ± 49 nM. The “AUC0–24” value in data set [1] (single oral dose, serum) is recorded as 1987 ± 247.90 nmol/L∗h. For the same substance, the “Tmax (serum)” value in data set [2] (ref Arunkumar et al. (2015) [42]) and in data set [2] (ref Ranganathan et al. (2019) [57]) was 4 h throughout.
